One assay concerns arteria coronaria. Kind of assay: Isolated smooth muscle: inhibition of K+ depolarization contraction of blood vessel rings in an organ bath, A. coronaria. The class given is cell-based. The settings on record: rabbit, average diameter 0.5-1.0 mm, read-out: IC50, semi-maximum inhibition of the K+ depolarization contraction of blood vessel rings, A. cor. From the text:
(§1) Isolated smooth muscle from rabbits (blood vessel rings, A. basilaris, A. coronaria, A. saphena) are fixed in an organ bath in such a manner that isometric contractions can be measured. The contraction is initiated by a potassium depolarization in tyrode solution.

For another assay, the system named is arteria basilaris. The assay is described as follows: Isolated smooth muscle: inhibition of K+ depolarization contraction of blood vessel rings in an organ bath, A. basilaris. The class given is cell-based. Conditions: rabbit, average diameter 0.5-1.0 mm, read-out: IC50, semi-maximum inhibition of the K+ depolarization contraction of blood vessel rings, A. bas.
Text: as §1

The next assay concerns arteria saphena. Kind of assay: Isolated smooth muscle: inhibition of K+ depolarization contraction of blood vessel rings in an organ bath, A. saphena. The class given is cell-based. The settings on record: rabbit, average diameter 0.5-1.0 mm, read-out: IC50, semi-maximum inhibition of the K+ depolarization contraction of blood vessel rings, A. saph.
Text: as §1

The test system of assay [1] is papillary muscle of the rabbit. The settings on record: Hof and Scholtysik, cited from earlier work.
Assay [2] concerns isolated papillary muscle of the guinea pig. The assay is described as follows: Isolated papillary muscle: isometric contraction under field stimulation. The class given is cell-based. Conditions: for IC50: read-out: IC50 /100 (IC = inhibition concentration, IC100 corresponds to maximum action) (converted). From the text: However, it cannot be excluded that the dimethyl sulfoxide used as a solvent has contributed to the observed positive inotropic action.

[3] abbreviates: Cavia porcellus, papillary muscle of guinea pig, 250/min, 10 msec, 10-20 V field stimulation.

Counter-ions that a name gives are not always drawn. Like-named read-outs stand apart in the source and are kept apart here.

With `CCCOc1nccc2c1C(c1ccccc1C(F)(F)F)C(C(=O)OC)=C(C)N2` (racemic) [Example 1h, methyl (±)-1,4-dihydro-2-methyl-5-propoxy-4-(2-trifluoromethylphenyl)-1,6-naphthyridine-3-carboxylate], the IC50 came out at 15 nM with arteria coronaria (Oryctolagus cuniculus), 3000 nM with arteria basilaris (Oryctolagus cuniculus) and 1000 nM in the assay with arteria saphena (Oryctolagus cuniculus).

Regarding `COC(=O)C1=C(C)NC(C)=C(C(=O)OC)C1c1ccccc1[N+](=O)[O-]` [nifedipine, reference compound], the IC50 in the assay with arteria coronaria (Oryctolagus cuniculus) was 5 nM; in assay [1] (read-out: IC50 /100 (IC = inhibition concentration, IC100 corresponds to maximum action)), 1000 nM; with arteria basilaris (Oryctolagus cuniculus), 2.7 nM; with arteria saphena (Oryctolagus cuniculus), 59 nM. Also, in assay [1], the “Δ% = maximum decrease of the contractility” value was -80%.

Consider “methyl (±)-4-(2-bromoethyl)-1,4-dihydro-5-isopropoxy-2-methyl-1,6-naphthyridine-3-carboxylate [Example 1a]”, for which, in assay [2] (at IC100, papillary muscle of guinea pig, 250/min, 10 msec, 10-20 V field stimulation), the “Δ% = maximum decrease of the contractility” value is on record as -48%. The IC50 in assay [2] (papillary muscle of guinea pig, 250/min, 10 msec, 10-20 V field stimulation) was 300000 nM; in the assay with arteria coronaria it was 2.7 nM; in the assay with arteria basilaris, 2.4 nM; in the assay on arteria saphena, 8 nM.

Regarding `COC(=O)C1=C(C)Nc2ccnc(OC)c2C1c1ccccc1` (racemic) [Example 2, Methyl (±)-1,4-dihydro-5-methoxy-2-methyl-4-phenyl-1,6-naphthyridine-3-carboxylate], the figures for the IC50 with arteria coronaria (Oryctolagus cuniculus), in the assay with arteria basilaris (Oryctolagus cuniculus) and in the assay with arteria saphena (Oryctolagus cuniculus) were 1000 nM, 250 nM and 90 nM, respectively.

On to `CCOC(=O)C1=C(C)Nc2ccnc(OCC(C)C)c2C1c1ccccc1C(F)(F)F` (racemic) [Example 1q, ethyl (±)-1,4-dihydro-5-isobutoxy-2-methyl-4-(2-trifluoromethylphenyl)-1,6-naphthyridine-3-carboxylate], for which the IC50 in assay [2] (setting [3]) was 10000 nM; in the assay with arteria coronaria (Oryctolagus cuniculus), 190 nM; in the assay on arteria basilaris (Oryctolagus cuniculus) it was 35 nM.

As to `COC(=O)C1=C(C)Nc2ccnc(OC(C)C)c2C1c1ccccc1F` (racemic) [Example 1, Methyl (±)-4-(2-fluorophenyl)-1,4-dihydro-5-isopropoxy-2-methyl-1,6-naphthyridine-3-carboxylate], the IC50 was 300000 nM in assay [2] (setting [3]), 30 nM in the assay with arteria coronaria (Oryctolagus cuniculus), 5 nM in the assay with arteria basilaris (Oryctolagus cuniculus) and 7 nM in the assay on arteria saphena (Oryctolagus cuniculus).

For `CCOC(=O)C1=C(C)Nc2ccnc(OC)c2C1c1ccccc1Cl` (racemic) [Example 2a, ethyl (±)-4-(2-chlorophenyl)-1,4-dihydro-5-methoxy-2-methyl-1,6-naphthyridine-3-carboxylate], the figures for the IC50 in the assay on arteria coronaria (Oryctolagus cuniculus), in the assay on arteria basilaris (Oryctolagus cuniculus) and with arteria saphena (Oryctolagus cuniculus) were 10 nM, 6 nM and 600 nM, respectively.

In the case of `CCOC(=O)C1=C(C)Nc2ccnc(OC)c2C1c1cccc([N+](=O)[O-])c1` (racemic) [Example 2b, ethyl (±)-1,4-dihydro-5-methoxy-2-methyl-4-(3-nitrophenyl)-1,6-naphthyridine-3-carboxylate], the IC50 in the assay on arteria coronaria (Oryctolagus cuniculus) came out at 12 nM; in the assay with arteria basilaris (Oryctolagus cuniculus), 1.8 nM; in the assay on arteria saphena (Oryctolagus cuniculus) it was 600 nM.

Consider `COC(=O)C1=C(C)Nc2ccnc(OC(C)C)c2C1c1ccccc1[N+](=O)[O-]` (racemic) [Example 1b, methyl (±)-1,4-dihydro-5-isopropoxy-2-methyl-4-(2-nitrophenyl)-1,6-naphthyridine-3-carboxylate], for which the IC50 with arteria coronaria (Oryctolagus cuniculus) was 0.75 nM; with arteria basilaris (Oryctolagus cuniculus), 0.66 nM; in the assay on arteria saphena (Oryctolagus cuniculus) it was 3.4 nM.

On to `CCOC(=O)C1=C(C)Nc2ccnc(OC(C)CC)c2C1c1ccccc1C(F)(F)F` (racemic) [Example 1p, ethyl (±)-5-sec-butoxy-1,4-dihydro-2-methyl-4-(2-trifluoromethylphenyl)-1,6-napthyridine-3-carboxylate hydrochloride], for which the IC50 was 10000 nM in assay [2] (setting [3]), 53 nM with arteria coronaria (Oryctolagus cuniculus) and 16 nM in the assay on arteria basilaris (Oryctolagus cuniculus).

For `COC(=O)C1=C(C)Nc2ccnc(OC(C)C)c2C1c1c(F)cccc1Cl` (racemic) [Example 1g, methyl (±)-4-(2-chloro-6-fluorophenyl)-1,4-dihydro-5-isopropoxy-2-methyl-1,6-naphthyridine-3-carboxylate], the figures for the IC50 in the assay on arteria coronaria (Oryctolagus cuniculus) and with arteria basilaris (Oryctolagus cuniculus) were 3.2 nM and 5.9 nM, respectively.

Take `COC(=O)C1=C(C)Nc2ccnc(OC(C)C)c2C1c1ccccc1` (racemic) [Example 1c, methyl (±)-1,4-dihydro-5-isopropoxy-2-methyl-4-phenyl-1,6-naphthyridine-3-carboxylate]: the activation at 0.3 µM in assay [2] (Cavia porcellus, 3×10^-7 mol/liter, read-out: maximum increase of the contractility) was 36%. Besides, the activation at 0.004 µM in assay [2] (Cavia porcellus, 4×10^-9 mol/liter, read-out: increase of the contractility) worked out at 18%. The values for the IC50 in the assay on arteria coronaria (Oryctolagus cuniculus), in the assay with arteria basilaris (Oryctolagus cuniculus) and in the assay with arteria saphena (Oryctolagus cuniculus) were 65 nM, 15 nM and 1000 nM, respectively.

On to `CCOC(=O)C1=C(C)Nc2ccnc(OC(C)C)c2C1c1ccccc1C(F)(F)F` (racemic) [Example 1l, ethyl (±)-1,4-dihydro-5-isopropoxy-2-methyl-4-(2-trifluoromethylphenyl)-1,6-naphthyridine-3-carboxylate], for which the IC50 was 120000 nM in assay [2] (setting [3]), 31 nM in the assay with arteria coronaria (Oryctolagus cuniculus), 7.4 nM in the assay on arteria basilaris (Oryctolagus cuniculus) and 390 nM in the assay on arteria saphena (Oryctolagus cuniculus).

Consider `COc1ccc([C@@H]2Sc3ccccc3N(CCN(C)C)C(=O)[C@@H]2OC(C)=O)cc1` [diltiazem, reference compound], for which the IC50 in assay [2] (setting [3]) was 10000 nM; in the assay on arteria coronaria (Oryctolagus cuniculus), 170 nM; with arteria basilaris (Oryctolagus cuniculus), 120 nM; in the assay with arteria saphena (Oryctolagus cuniculus), 2900 nM.

Source of the values: US4760081A, “1,6-naphthyridine derivatives useful for treating diseases of the blood vessels” (Goedecke Aktiengesellschaft, priority 1984, dated 1988).
